Measured values taken from US20230226005A1, “Methods of Treating, Ameliorating, Shortening Duration, and/or Reversing Symptoms and/or Complications of a Coronavirus Infection” (Yale University, priority 2020, published 2023).

Columns and labels:
[1] = system: COVID-19 infection; test: Phase IIa study: COVID-19 PRO daily self-score, symptom severity score (items 1-33, 0-132); format: in vivo
[2] = system: SARS-CoV-2 cellular entry; conditions: in vitro as well as in vivo; cited from earlier work
[3] = system: COVID-19 infection; test: Phase IIa study: eye-family symptom score; format: in vivo
[4] = system: COVID-19 infection; test: Phase IIa study: throat-family symptom score; format: in vivo

CN(C)C(=O)COC(=O)Cc1ccc(OC(=O)c2ccc(NC(=N)N)cc2)cc1 [camostat, 4-[[4-[(Aminoiminomethyl)amino]benzoyl]oxy]benzeneacetic acid 2-(dimethylamino)-2-oxoethyl ester]
symptom severity score, Negative binomial model, B − A ([1]; day 11): 1.17 (0.35)
COVID-19 symptom severity score raw Mean ([1]; day 12): 9.6
symptom score, Fitzmaurice mixed effects model, A: Camostat arm ([1]; day 12): 8.18 (2.69)
symptom score, Fitzmaurice mixed effects model, B − A (placebo − camostat) ([1]; day 12): 2.39 (2.88)
symptom severity score, ANCOVA linear mixed model, A: Camostat arm ([1]; day 12): −22.87 (2.22)
symptom severity score, ANCOVA linear mixed model, B − A (placebo − camostat) ([1]; day 12): 1.46 (3.09)
symptom severity score, Negative binomial model, A: Camostat arm ([1]; day 12): 9.06 (2.18)
symptom severity score, Negative binomial model, B − A ([1]; day 12): 0.94 (0.25)
COVID-19 symptom severity score raw Mean ([1]; day 13): 9.7
symptom score, Fitzmaurice mixed effects model, A: Camostat arm ([1]; day 13): 7.87 (2.75)
symptom score, Fitzmaurice mixed effects model, B − A (placebo − camostat) ([1]; day 13): 2.11 (2.95)
symptom severity score, ANCOVA linear mixed model, A: Camostat arm ([1]; day 13): −23.17 (2.29)
symptom severity score, ANCOVA linear mixed model, B − A (placebo − camostat) ([1]; day 13): 1.17 (3.15)
symptom severity score, Negative binomial model, A: Camostat arm ([1]; day 13): 8.9 (2.27)
symptom severity score, Negative binomial model, B − A ([1]; day 13): 0.88 (0.26)
COVID-19 symptom severity score raw Mean ([1]; day 14): 8.2
symptom score, Fitzmaurice mixed effects model, A: Camostat arm ([1]; day 14): 7.8 (2.75)
symptom score, Fitzmaurice mixed effects model, B − A (placebo − camostat) ([1]; day 14): 2.24 (2.97)
symptom severity score, ANCOVA linear mixed model, A: Camostat arm ([1]; day 14): −23.26 (2.29)
symptom severity score, ANCOVA linear mixed model, B − A (placebo − camostat) ([1]; day 14): 1.32 (3.16)
symptom severity score, Negative binomial model, A: Camostat arm ([1]; day 14): 8.11 (2.11)
symptom severity score, Negative binomial model, B − A ([1]; day 14): 1.03 (0.31)
symptom severity scores compared to placebo ([1]; days 5 through 10, did not reach statistical significance): lower
SARS-CoV-2 cellular entry [2]: can be blocked
eye-family symptom score, Fitzmaurice model, Camostat ([3]; day 0): 1.4 (0.2)
eye-family symptom score, Fitzmaurice model, Camostat ([3]; day 1): 1.4 (0.2)
eye-family symptom score, Fitzmaurice model, Effect (placebo vs camostat) ([3]; day 1): −0.3 (0.3)
eye-family symptom score, Fitzmaurice model, Camostat ([3]; day 2): 1.2 (0.2)
eye-family symptom score, Fitzmaurice model, Effect (placebo vs camostat) ([3]; day 2): −0.2 (0.3)
eye-family symptom score, Fitzmaurice model, Camostat ([3]; day 3): 0.9 (0.2)
eye-family symptom score, Fitzmaurice model, Effect (placebo vs camostat) ([3]; day 3): −0.2 (0.3)
eye-family symptom score, Fitzmaurice model, Camostat ([3]; day 4): 0.5 (0.2)
eye-family symptom score, Fitzmaurice model, Effect (placebo vs camostat) ([3]; day 4): 0.2 (0.3)
eye-family symptom score, Fitzmaurice model, Camostat ([3]; day 5): 0.5 (0.2)
eye-family symptom score, Fitzmaurice model, Effect (placebo vs camostat) ([3]; day 5): −0.2 (0.3)
eye-family symptom score, Fitzmaurice model, Camostat ([3]; day 6): 0.2 (0.2)
eye-family symptom score, Fitzmaurice model, Effect (placebo vs camostat) ([3]; day 6): 0.3 (0.3)
eye-family symptom score, Fitzmaurice model, Camostat ([3]; day 7): 0.2 (0.2)
eye-family symptom score, Fitzmaurice model, Effect (placebo vs camostat) ([3]; day 7): 0.3 (0.3)
eye-family symptom score, Fitzmaurice model, Camostat ([3]; day 8): 0.1 (0.2)
eye-family symptom score, Fitzmaurice model, Effect (placebo vs camostat) ([3]; day 8): 0.5 (0.3)
eye-family symptom score, Fitzmaurice model, Camostat ([3]; day 9): 0.2 (0.2)
eye-family symptom score, Fitzmaurice model, Effect (placebo vs camostat) ([3]; day 9): 0.4 (0.3)
eye-family symptom score, Fitzmaurice model, Camostat ([3]; day 10): 0.2 (0.2)
eye-family symptom score, Fitzmaurice model, Effect (placebo vs camostat) ([3]; day 10): 0.3 (0.3)
eye-family symptom score, Fitzmaurice model, Camostat ([3]; day 11): 0 (0.2)
eye-family symptom score, Fitzmaurice model, Effect (placebo vs camostat) ([3]; day 11): 0.4 (0.3)
eye-family symptom score, Fitzmaurice model, Camostat ([3]; day 12): 0 (0.2)
eye-family symptom score, Fitzmaurice model, Effect (placebo vs camostat) ([3]; day 12): 0.3 (0.3)
eye-family symptom score, Fitzmaurice model, Camostat ([3]; day 13): 0.1 (0.2)
eye-family symptom score, Fitzmaurice model, Effect (placebo vs camostat) ([3]; day 13): 0.1 (0.3)
eye-family symptom score, Fitzmaurice model, Camostat ([3]; day 14): 0.2 (0.2)
eye-family symptom score, Fitzmaurice model, Effect (placebo vs camostat) ([3]; day 14): 0.1 (0.3)
throat-family symptom score, Fitzmaurice model, Camostat ([4]; day 0): 2.3 (0.3)
throat-family symptom score, Fitzmaurice model, Camostat ([4]; day 1): 2 (0.3)
throat-family symptom score, Fitzmaurice model, Effect (placebo vs camostat) ([4]; day 1): −0.7 (0.4)
throat-family symptom score, Fitzmaurice model, Camostat ([4]; day 2): 1.7 (0.4)
throat-family symptom score, Fitzmaurice model, Effect (placebo vs camostat) ([4]; day 2): −0.8 (0.4)
throat-family symptom score, Fitzmaurice model, Camostat ([4]; day 3): 1.6 (0.3)
throat-family symptom score, Fitzmaurice model, Effect (placebo vs camostat) ([4]; day 3): −0.7 (0.4)
throat-family symptom score, Fitzmaurice model, Camostat ([4]; day 4): 1.7 (0.3)
throat-family symptom score, Fitzmaurice model, Effect (placebo vs camostat) ([4]; day 4): −0.9 (0.4)
throat-family symptom score, Fitzmaurice model, Camostat ([4]; day 5): 1.1 (0.3)
throat-family symptom score, Fitzmaurice model, Effect (placebo vs camostat) ([4]; day 5): −0.2 (0.4)
throat-family symptom score, Fitzmaurice model, Camostat ([4]; day 6): 0.9 (0.4)
throat-family symptom score, Fitzmaurice model, Effect (placebo vs camostat) ([4]; day 6): −0.1 (0.4)
throat-family symptom score, Fitzmaurice model, Camostat ([4]; day 7): 0.7 (0.4)
throat-family symptom score, Fitzmaurice model, Effect (placebo vs camostat) ([4]; day 7): −0.3 (0.4)
throat-family symptom score, Fitzmaurice model, Camostat ([4]; day 8): 0.6 (0.4)
throat-family symptom score, Fitzmaurice model, Effect (placebo vs camostat) ([4]; day 8): −0.2 (0.4)
throat-family symptom score, Fitzmaurice model, Camostat ([4]; day 9): 0.4 (0.4)
throat-family symptom score, Fitzmaurice model, Effect (placebo vs camostat) ([4]; day 9): −0.1 (0.4)
throat-family symptom score, Fitzmaurice model, Camostat ([4]; day 10): 0.5 (0.4)
throat-family symptom score, Fitzmaurice model, Effect (placebo vs camostat) ([4]; day 10): −0.4 (0.4)
throat-family symptom score, Fitzmaurice model, Camostat ([4]; day 11): 0.6 (0.4)
throat-family symptom score, Fitzmaurice model, Effect (placebo vs camostat) ([4]; day 11): −0.4 (0.4)
throat-family symptom score, Fitzmaurice model, Camostat ([4]; day 12): 0.5 (0.4)
throat-family symptom score, Fitzmaurice model, Effect (placebo vs camostat) ([4]; day 12): −0.4 (0.4)
throat-family symptom score, Fitzmaurice model, Camostat ([4]; day 13): 0.5 (0.4)
throat-family symptom score, Fitzmaurice model, Effect (placebo vs camostat) ([4]; day 13): −0.4 (0.5)
throat-family symptom score, Fitzmaurice model, Camostat ([4]; day 14): 0.5 (0.4)
throat-family symptom score, Fitzmaurice model, Effect (placebo vs camostat) ([4]; day 14): −0.5 (0.5)
